According to US8063071B2 (GlaxoSmithKline, LLC, priority 2007, dated 2011):
Counter-ions that a name gives are not always drawn.

What was measured:
[1] = tested on: human monocyte stimulated cytokine production (TNF-α); assay: Monocyte assay (LPS-stimulated TNF-α production); assay type: cell-based; settings: for IC50: 24 h, 200 ng/mL LPS, TNF-α by ELISA; for inhibition at 0.3 µM: read-out: inhibition at 300 nM in the monocyte assay
How it was run: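 TNF-α release was measured by ELISA after 24 hrs at 37 C. Cells were stimulated with 200 ng/mL E. coli LPS, with compound added 30 minutes beforehand (0.1% DMSO vehicle). Cells were Ficoll/MACS-isolated CD14+ human monocytes adhered at 1×10^6 cells/mL, and viability was checked by trypan blue.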

[2] = biological target: T1, Recombinant human IKKβ (residues 1-737) (Homo sapiens, UniProt O14920); assay: IKK2 assay (TR-FRET); assay type: biochemical; settings: ATP 1 μM final, read-out: pIC50 against IKK2 (converted)
T1 construct: Recombinant human IKKβ (residues 1-737); GST (C); made in house
T1 sequence (O14920 1-737): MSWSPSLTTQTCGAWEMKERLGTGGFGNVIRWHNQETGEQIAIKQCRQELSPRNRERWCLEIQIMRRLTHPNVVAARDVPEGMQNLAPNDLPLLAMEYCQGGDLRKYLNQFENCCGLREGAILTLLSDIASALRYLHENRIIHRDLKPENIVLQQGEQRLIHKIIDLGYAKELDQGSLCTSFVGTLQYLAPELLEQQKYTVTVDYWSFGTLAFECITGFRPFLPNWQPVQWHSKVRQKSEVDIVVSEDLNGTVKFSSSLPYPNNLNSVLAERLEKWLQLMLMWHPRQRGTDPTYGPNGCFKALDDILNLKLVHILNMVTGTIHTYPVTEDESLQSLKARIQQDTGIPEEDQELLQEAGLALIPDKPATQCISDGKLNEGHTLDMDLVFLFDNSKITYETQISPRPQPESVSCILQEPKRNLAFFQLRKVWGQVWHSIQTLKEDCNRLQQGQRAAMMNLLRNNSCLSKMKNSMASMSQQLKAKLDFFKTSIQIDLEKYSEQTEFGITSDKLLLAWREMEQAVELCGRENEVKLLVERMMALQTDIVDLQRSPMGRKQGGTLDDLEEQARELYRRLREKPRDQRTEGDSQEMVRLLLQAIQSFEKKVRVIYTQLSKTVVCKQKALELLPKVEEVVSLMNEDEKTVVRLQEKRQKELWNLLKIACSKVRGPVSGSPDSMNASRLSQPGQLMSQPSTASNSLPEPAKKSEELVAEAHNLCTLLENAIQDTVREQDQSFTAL
How it was run: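 TR-FRET readout (665 nm over 620 nm Eu reference) of GST-IB Ser32/36 phosphorylation after 60 min detection. Reaction: 1 μM ATP, 25 nM substrate, 0.5-5 nM GST-fused IKKβ 1-737 from baculovirus, pH 7.4 HEPES buffer, 1.7% DMSO, 15 min room temperature, EDTA-terminated.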

Structure (SMILES) | IC50 [1] [µM] | IC50 [2] [µM] | inhibition at 0.3 µM [1] [%]
CCS(=O)(=O)N1CCC(c2c[nH]c3c(C(N)=O)cc(-c4cccc(CNC)c4)cc23)CC1 [Example 28, 3-[1-(ethylsulfonyl)-4-piperidinyl]-5-{3-[(methylamino)methyl]phenyl}-1H-indole-7-carboxamide] | ≤ 1.5 | ≤ 10 | 
CCS(=O)(=O)N1CCC(c2c[nH]c3c(C(N)=O)cc(-c4csc(CN5CCC[C@@H]5C(N)=O)c4)cc23)CC1 [Example 48, 5-(5-{[(2R)-2-(aminocarbonyl)-1-pyrrolidinyl]methyl}-3-thienyl)-3-[1-(ethylsulfonyl)-4-piperidinyl]-1H-indole-7-carboxamide] |  | ≤ 10 | 0 to 60
CCS(=O)(=O)N1CCC(c2c[nH]c3c(C(N)=O)cc(-c4cccc(CNS(=O)(=O)C5CC5)c4)cc23)CC1 [Example 369, 5-(3-{[(cyclopropylsulfonyl)amino]methyl}phenyl)-3-[1-(ethylsulfonyl)-4-piperidinyl]-1H-indole-7-carboxamide] | ≤ 1.5 | ≤ 10 | 
CCS(=O)(=O)N1CCC(c2c[nH]c3c(C(N)=O)cc(-c4csc(CN(C)Cc5cccnc5)c4)cc23)CC1 [Example 84, 3-[1-(ethylsulfonyl)-4-piperidinyl]-5-(5-{[methyl(3-pyridinylmethyl)amino]methyl}-3-thienyl)-1H-indole-7-carboxamide trifluoroacetate] |  | ≤ 10 | 0 to 60
CCN(CC)Cc1ccc(-c2cc(C(N)=O)c3[nH]cc(C4CCN(S(=O)(=O)CC)CC4)c3c2)cc1 [Example 147, 5-{4-[(diethylamino)methyl]phenyl}-3-[1-(ethylsulfonyl)-4-piperidinyl]-1H-indole-7-carboxamide] | > 1 | ≤ 10 | 
CCS(=O)(=O)N1CCC(c2c[nH]c3c(C(N)=O)cc(-c4cccc(CNC[C@H](C)O)c4)cc23)CC1 [Example 22, 3-[1-(ethylsulfonyl)-4-piperidinyl]-5-[3-({[(2S)-2-hydroxypropyl]amino}methyl)phenyl]-1H-indole-7-carboxamide] | ≤ 1.5 | ≤ 10 | 
CCS(=O)(=O)N1CCC(c2c[nH]c3c(C(N)=O)cc(-c4cncc(CN5CCCC5C)c4)cc23)CC1 (stereo not shown) [Example 179, 3-[1-(ethylsulfonyl)-4-piperidinyl]-5-{5-[(2-methyl-1-pyrrolidinyl)methyl]-3-pyridinyl}-1H-indole-7-carboxamide] |  | ≤ 10 | 0 to 60
CCS(=O)(=O)N1CCC(c2c[nH]c3c(C(N)=O)cc(-c4cccc(CNS(=O)(=O)c5c(C)cccc5Cl)c4)cc23)CC1 [Example 376, 5-[3-({[(2-chloro-6-methylphenyl)sulfonyl]amino}methyl)phenyl]-3-[1-(ethylsulfonyl)-4-piperidinyl]-1H-indole-7-carboxamide] | ≤ 1.5 | ≤ 10 | 
CCS(=O)(=O)N1CCC(c2c[nH]c3c(C(N)=O)cc(-c4csc(CN5CCCC5)c4)cc23)CC1 [Example 232, 3-[1-(ethylsulfonyl)-4-piperidinyl]-5-[5-(1-pyrrolidinylmethyl)-3-thienyl]-1H-indole-7-carboxamide trifluoroacetate] | ≤ 1.5 | ≤ 10 | 
CCS(=O)(=O)N1CCC(c2c[nH]c3c(C(N)=O)cc(-c4cccc(CN(C)C)c4)cc23)CC1 [Example 64, 5-{3-[(dimethylamino)methyl]phenyl}-3-[1-(ethylsulfonyl)-4-piperidinyl]-1H-indole-7-carboxamide] | ≤ 1.5 | ≤ 10 | 
CCS(=O)(=O)N1CCC(c2c[nH]c3c(C(N)=O)cc(-c4ccc(CNC(=O)Cc5cccs5)cc4)cc23)CC1 [Example 160, 3-[1-(ethylsulfonyl)-4-piperidinyl]-5-(4-{[(2-thienylacetyl)amino]methyl}phenyl)-1H-indole-7-carboxamide] | ≤ 1.5 | ≤ 10 | 
CCN(C)Cc1cccc(-c2cc(C(N)=O)c3[nH]cc(C4CCN(S(=O)(=O)CC)CC4)c3c2)c1 [Example 13, 5-(3-{[ethyl(methyl)amino]methyl}phenyl)-3-[1-(ethylsulfonyl)-4-piperidinyl]-1H-indole-7-carboxamide] | ≤ 1.5 | ≤ 10 | 
CCS(=O)(=O)N1CCC(c2c[nH]c3c(C(N)=O)cc(-c4cnn(CCNCCO)c4)cc23)CC1 [Example 255, 3-[1-(ethylsulfonyl)-4-piperidinyl]-5-(1-{2-[(2-hydroxyethyl)amino]ethyl}-1H-pyrazol-4-yl)-1H-indole-7-carboxamide trifluoroacetate] | > 1 | ≤ 10 | 
CCS(=O)(=O)N1CCC(c2c[nH]c3c(C(N)=O)cc(-c4cc(F)cc(CNCCCOC)c4)cc23)CC1 [Example 327, 3-[1-(ethylsulfonyl)-4-piperidinyl]-5-[3-fluoro-5-({[3-(methyloxy)propyl]amino}methyl)phenyl]-1H-indole-7-carboxamide trifluoroacetate] | ≤ 1.5 | ≤ 10 | 
CCS(=O)(=O)N1CCC(c2c[nH]c3c(C(N)=O)cc(-c4cccc(CNC(=O)c5ccc(F)cc5)c4)cc23)CC1 [Example 360, 3-[1-(ethylsulfonyl)-4-piperidinyl]-5-[3-({[(4-fluorophenyl)carbonyl]amino}methyl)phenyl]-1H-indole-7-carboxamide trifluoroacetate] | > 1 | ≤ 10 | 
CCS(=O)(=O)N1CCC(c2c[nH]c3c(C(N)=O)cc(-c4cccc(CN[C@H](C)C(C)C)c4)cc23)CC1 [Example 162, 5-[3-({[(1R)-1,2-dimethylpropyl]amino}methyl)phenyl]-3-[1-(ethylsulfonyl)-4-piperidinyl]-1H-indole-7-carboxamide trifluoroacetate] | ≤ 1.5 | ≤ 10 | 
CCCNCCc1ccc(-c2cc(C(N)=O)c3[nH]cc(C4CCN(S(=O)(=O)CC)CC4)c3c2)cc1 [Example 126, 3-[1-(ethylsulfonyl)-4-piperidinyl]-5-{4-[2-(propylamino)ethyl]phenyl}-1H-indole-7-carboxamide] | ≤ 1.5 | ≤ 10 | 
CCS(=O)(=O)N1CCC(c2c[nH]c3c(C(N)=O)cc(-c4cc(F)cc(CNCCOC)c4)cc23)CC1 [Example 326, 3-[1-(ethylsulfonyl)-4-piperidinyl]-5-[3-fluoro-5-({[2-(methyloxy)ethyl]amino}methyl)phenyl]-1H-indole-7-carboxamide trifluoroacetate] | ≤ 1.5 | ≤ 10 | 
CCS(=O)(=O)N1CCC(c2c[nH]c3c(C(N)=O)cc(-c4csc(CN5CCCC5CN5CCCCC5)c4)cc23)CC1 (stereo not shown) [Example 47, 3-[1-(ethylsulfonyl)-4-piperidinyl]-5-(5-{[2-(1-piperidinylmethyl)-1-pyrrolidinyl]methyl}-3-thienyl)-1H-indole-7-carboxamide] |  | ≤ 10 | 0 to 60
CCS(=O)(=O)N1CCC(c2c[nH]c3c(C(N)=O)cc(-c4csc(CN5CCC(N6CCCC6)CC5)c4)cc23)CC1 [Example 392, 3-[1-(ethylsulfonyl)-4-piperidinyl]-5-(5-{[4-(1-pyrrolidinyl)-1-piperidinyl]methyl}-3-thienyl)-1H-indole-7-carboxamide trifluoroacetate] | > 1 | ≤ 10 | 
CCN1CCN(c2ccc(-c3cc(C(N)=O)c4[nH]cc(C5CCN(S(=O)(=O)CC)CC5)c4c3)cn2)CC1 [Example 136, 5-[6-(4-ethyl-1-piperazinyl)-3-pyridinyl]-3-[1-(ethylsulfonyl)-4-piperidinyl]-1H-indole-7-carboxamide trifluoroacetate] | > 1 | ≤ 10 | 
CCS(=O)(=O)N1CCC(c2c[nH]c3c(C(N)=O)cc(-c4ccc(F)c(CNC)c4)cc23)CC1 [Example 269, 3-[1-(ethylsulfonyl)-4-piperidinyl]-5-{4-fluoro-3-[(methylamino)methyl]phenyl}-1H-indole-7-carboxamide trifluoroacetate] | ≤ 1.5 | ≤ 10 | 
CCS(=O)(=O)N1CCC(c2c[nH]c3c(C(N)=O)cc(-c4cccc(CNS(=O)(=O)c5cccc(F)c5)c4)cc23)CC1 [Example 373, 3-[1-(ethylsulfonyl)-4-piperidinyl]-5-[3-({[(3-fluorophenyl)sulfonyl]amino}methyl)phenyl]-1H-indole-7-carboxamide] | ≤ 1.5 | ≤ 10 | 
